Measured values: paper PMC2694132 (Cancer research, 2009)

Experiments:
[1] = cited from earlier work; for apparent terminal half-life: patients treated with SAHA; for serum level relative to the parent compound (higher, on average): serum from patients treated with SAHA
[2] = biological target: T1, UGT1A8*3 (UGT1A8p.Cys277Tyr) (Homo sapiens, UniProt Q9HAW9, C277Y); assay: Glucuronidation, UGT1A8*3 variant cell homogenate; type: in vitro ADME; details: data not shown
T1 sequence (Q9HAW9 26-530 C277Y): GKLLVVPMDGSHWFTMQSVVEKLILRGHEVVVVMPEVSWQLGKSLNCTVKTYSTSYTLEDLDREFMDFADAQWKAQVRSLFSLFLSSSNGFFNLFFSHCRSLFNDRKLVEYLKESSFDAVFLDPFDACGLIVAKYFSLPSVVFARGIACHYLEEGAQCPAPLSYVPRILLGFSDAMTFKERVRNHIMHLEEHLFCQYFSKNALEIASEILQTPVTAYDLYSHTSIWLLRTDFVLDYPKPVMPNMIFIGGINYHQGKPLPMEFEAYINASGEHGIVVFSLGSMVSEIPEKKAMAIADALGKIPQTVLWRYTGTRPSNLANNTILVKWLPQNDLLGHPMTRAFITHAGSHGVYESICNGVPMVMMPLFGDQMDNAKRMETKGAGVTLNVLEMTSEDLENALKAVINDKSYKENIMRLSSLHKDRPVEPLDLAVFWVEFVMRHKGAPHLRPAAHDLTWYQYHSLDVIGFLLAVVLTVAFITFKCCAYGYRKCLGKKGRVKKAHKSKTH

SMILES	apparent terminal half-life [1]	serum level relative to the parent compound (higher, on average) [1]	glucuronidation activity against 4-methylumbelliferone [2]
O=C(O)CCC(=O)Nc1ccccc1 [4-anilino-4-oxobutanoic acid]	6 to 9 h	10- to 13 fold	–
Cc1cc(=O)oc2cc(O)ccc12 [4-methylumbellifer-one]	–	–	detectable levels of activity
O=C(CCCCCCC(=O)Nc1ccccc1)NO[C@@H]1O[C@H](C(=O)O)[C@@H](O)[C@H](O)[C@H]1O [SAHA-glucuronide]	~ 1.8 hours	3- to 4 fold	–
